Measured values as given in patent US20230233687A1, “HYALURONIC ACID-BASED FORMULATIONS FOR TREATMENT AND PREVENTION OF OCULAR HYPERTENSION AND GLAUCOMA” (I.COM MEDICAL GMBH, priority 2020, published 2023).

Legend:
[1] = Pre-test: latanoprost dissolved in the HA vehicle (HPLC); format: physicochemical; settings: vehicle 0.15% w/v hylan A in phosphate buffered saline pH 7.4, 25 or 50 μg/ml added, stirred 18 hours at 40° C.
Experimental: Sterile bulk solution for the production of COMFORT SHIELD® MDS eye drops (i.com medical GmbH, Munich, Germany) was used as vehicle for the preparation of prototype latanoprost bulk solution (PLBS). The vehicle contained 0.15% w/v hylan A (HA with 2.9 m^3/kg intrinsic viscosity) dissolved in phosphate buffered saline solution (8.035 g/l NaCl; 1.2 mmol/l Na2HPO4/NaH2PO4; pH 7.4). Latanoprost was obtained from Yonsung Fine Chemicals Co. Ltd., Gyeonggi-do, Republic of Korea. PLBS was prepared by medi-pharm Laboratorium GmbH, Falkensee, Germany by dissolving 20±1 μg/ml latanoprost in the vehicle.
In a pre-test 25 μg/ml and 50 μg/ml latanoprost were added to the vehicle and the solution stirred for 18 hours at 40° C. The latanoprost content was determined by HPLC using a Hypersil B D S C18 […], 150.0×4.0 mm column (VDS optilab) and a UV detector (200 nm).

[2] = PubChem CID 5311221; cited from earlier work

- latanoprost dissolved in the vehicle [1]: 20.8 µg/mL
Compound: CC(C)OC(=O)CCC/C=C\C[C@@H]1[C@@H](CC[C@@H](O)CCc2ccccc2)[C@H](O)C[C@@H]1O [latanoprost]
- solubility of latanoprost in water [2]: 12.9 µg/mL
